Test results reported in ChEMBL document CHEMBL1123992, “Benzo[1,2-c:5,4-c']dipyrazoles: non-xanthine adenosine antagonists” (J Med Chem, 1988).
pEC50, pKi: −log10 of the molar value.

Tests used:
[1] = organism: Cavia porcellus; experiment: Reversal of spasmogen-induced contraction of guinea pig cylindrical tracheal segments induced by histamine (1x […] -5 M); type: functional; conditions: Trachea, read-out: ED50 (the source's name)
[2] = organism: Cavia porcellus; experiment: Reversal of spasmogen-induced contraction of guinea pig cylindrical tracheal segments induced by acetylcholine (1 x 10e -5 M); type: functional; conditions: Trachea, read-out: ED50 (the source's name)
[3] = molecular target: T1, Adenosine receptor A1 (Rattus norvegicus, UniProt P25099); experiment: In vitro binding affinity to Adenosine A1 receptor of rat cerebral cortical membranes using 1 nM [3H]PIA
T1 sequence (P25099 whole entry): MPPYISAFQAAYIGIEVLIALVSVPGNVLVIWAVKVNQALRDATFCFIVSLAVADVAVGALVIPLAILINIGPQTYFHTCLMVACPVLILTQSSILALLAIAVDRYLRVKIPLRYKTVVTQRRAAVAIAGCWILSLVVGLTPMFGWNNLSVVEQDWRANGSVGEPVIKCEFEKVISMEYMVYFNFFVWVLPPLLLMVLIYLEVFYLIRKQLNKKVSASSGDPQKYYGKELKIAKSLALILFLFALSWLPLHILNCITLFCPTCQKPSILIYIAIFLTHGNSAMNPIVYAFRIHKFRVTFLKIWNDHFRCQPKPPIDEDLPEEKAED

[4] = organism: Cavia porcellus; experiment: Reversal of spasmogen-induced contraction of guinea pig cylindrical tracheal segments induced by 5-hydroxytryptamine (2x 10e-6 M); type: functional; conditions: Trachea, read-out: ED50 (the source's name)
[5] = molecular target: Adenosine A2 receptor (Homo sapiens, UniProt P29275+P29274); experiment: In vitro binding affinity to Adenosine A2 receptor of human platelets by inhibition of NECA-stimulated adenylate cyclase; type: functional
[6] = organism: Cavia porcellus; experiment: Reversal of spasmogen-induced contraction of guinea pig cylindrical tracheal segments induced by Carbachol (7.4 x 10e -7 M); type: functional; conditions: Trachea, read-out: ED50 (the source's name)
[7] = organism: Cavia porcellus; experiment: Reversal of spasmogen-induced contraction of guinea pig cylindrical tracheal segments induced by histamine (1 x 10e -5 M); type: functional; conditions: Trachea, read-out: ED50 (the source's name)
[8] = molecular target: Adenosine A2 receptor (Cavia porcellus); experiment: Inhibition of 2-CADO-stimulated adenylate cyclase at Adenosine A2 receptor in guinea pig cerebral cortical slices
[9] = molecular target: Adenosine A2 receptor (Rattus norvegicus, UniProt P29276+P30543); experiment: Inhibition of adenosine stimulated accumulation of cyclic AMP at Adenosine A2 receptor of VA13 fibroblasts of rat; type: functional
[10] = organism: Cavia porcellus; experiment: Reversal of spasmogen-induced contraction of guinea pig cylindrical tracheal segments induced by acetylcholine (1*10e-5 M); type: functional; conditions: Trachea, read-out: ED50 (the source's name)
[11] = organism: Cavia porcellus; experiment: Reversal of spasmogen-induced contraction of guinea pig cylindrical tracheal segments induced by Carbachol (7.4x 10e-7 M); type: functional; conditions: Trachea, read-out: ED50 (the source's name)
[12] = molecular target: T1, Adenosine receptor A1; experiment: Binding of 1 nM [3H]CHA to Adenosine A1 receptor of rat cerebral cortical membranes; type: cell membranes, Membrane

Row | pEC50 [1] | pEC50 [2] | pKi [3] | pEC50 [4] | Ki [5] | Structure (SMILES) | other results
1 | 5.19 | 4.60 | 5.72 | 5.82 | 14.4 µM | Cc1n[nH]c2c([N+](=O)[O-])c3[nH]nc(C)c3cc12 | 
2 | 4.42 |  | 4.27 | 4.70 | 170 µM | Cc1nn(C)c2c(C)c3c(cc12)c(C)nn3C | pEC50 [6]: 5.02
3 |  | 5.70 |  | 6.05 |  | Cc1n[nH]c2c(Br)c3[nH]nc(C)c3cc12 | pEC50 [7]: 5.52
4 |  |  |  |  |  | CCn1c(=O)c2nc[nH]c2n(CC)c1=O | Ki [8]: 3 µM; Ki [9]: 1.2 µM
5 | 4.62 | 5.07 | 5.92 | 5.34 | 4.8 µM | Cc1n[nH]c2c(C)c3[nH]nc(C)c3cc12 | 
6 |  |  | 5.10 | 5.70 | 25.6 µM | Cc1n[nH]c2cc3[nH]nc(C)c3cc12 | pEC50 [7]: 5.85; pEC50 [10]: 5.40
7 | 4.12 |  | < 4.00 | 4.77 | 80 µM | Cc1nn(C)c2cc3c(cc12)c(C)nn3C | 
8 | 5.28 |  | 4.57 | 5.89 | 56 µM | CCn1nc(C)c2cc3c(C)nn(CC)c3cc21 | pEC50 [6]: 4.96
9 | 4.39 |  | 4.98 | 4.89 | 32 µM | CCCn1nc(C)c2cc3c(C)nn(CCC)c3cc21 | pEC50 [6]: 4.16
10 | 5.39 | 5.37 | 4.70 |  | 53 µM | CCn1nc(C)c2cc3c(C)nn(CC)c3c(C)c21 | pEC50 [11]: 6.00
11 |  |  |  |  |  | Cn1c(=O)[nH]c2[nH]cnc2c1=O [1-METHYLXANTHINE] | Ki [9]: 6.6 µM; pKi [12]: 5.05
12 |  |  |  |  |  | O=c1[nH]c(=O)c2nc[nH]c2[nH]1 [XANTHINE] | Ki [9]: 130 µM

Row | Structure (SMILES) | pEC50 [1] | pEC50 [2] | pKi [3] | pEC50 [4] | Ki [5] | other results
13 | Cn1c(=O)c2[nH]cnc2n(C)c1=O [AMINOPHYLLINE] | 4.38 | 4.24 |  | 4.68 |  | 
